From ChEMBL document CHEMBL4382202, “1-(2-Hydroxybenzoyl)-thiosemicarbazides are promising antimicrobial agents targeting d-alanine-d-alanine ligase in bacterio” (Eur J Med Chem, 2018)
Converted amounts (≈) assume the structure as drawn.

Tests used:
[1] = biological target: T1, D-alanine--D-alanine ligase (Enterococcus faecalis (strain ATCC 700802 / V583), UniProt Q47758); test: Inhibition of Enterococcus faecalis JH2-2 C-terminal 6His-tagged DdlB expressed in Escherichia coli LMG194 preincubated for 30 mins followed by substrate addition and measured after 20 mins by Biomol Green reagent assay
T1 sequence (Q47758 whole entry): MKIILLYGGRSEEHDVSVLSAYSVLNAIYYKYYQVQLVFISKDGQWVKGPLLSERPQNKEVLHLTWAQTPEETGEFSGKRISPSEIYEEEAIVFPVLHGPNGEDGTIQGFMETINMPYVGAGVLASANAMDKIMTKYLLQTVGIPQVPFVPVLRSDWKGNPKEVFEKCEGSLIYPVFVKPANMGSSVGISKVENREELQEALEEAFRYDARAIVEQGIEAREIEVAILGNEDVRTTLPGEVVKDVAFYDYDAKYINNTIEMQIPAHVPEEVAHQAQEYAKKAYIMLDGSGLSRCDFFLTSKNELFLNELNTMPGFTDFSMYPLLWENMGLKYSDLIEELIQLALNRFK

[2] = tested on: Staphylococcus aureus; test: Antibacterial activity against Staphylococcus aureus ATCC 25923 after 18 to 24 hrs by microdilution assay; assay type: functional
[3] = tested on: Enterococcus faecalis; test: Antibacterial activity against Enterococcus faecalis ATCC 29212 after 18 to 24 hrs by microdilution assay; assay type: functional
[4] = tested on: Enterococcus faecalis; test: Antibacterial activity against vancomycin-resistant Enterococcus faecalis BM 4390 after 18 to 24 hrs by microdilution assay; assay type: functional
[5] = tested on: Enterococcus faecalis; test: Antibacterial activity against vancomycin-resistant Enterococcus faecalis JH2-2::C1 after 18 to 24 hrs by microdilution assay; assay type: functional
[6] = tested on: Enterococcus faecalis; test: Antibacterial activity against vancomycin-resistant Enterococcus faecalis BM 4575 clinical isolate after 18 to 24 hrs by microdilution assay; assay type: functional
[7] = tested on: Staphylococcus aureus; test: Antibacterial activity against methicillin and vancomycin intermediate resistant Staphylococcus aureus MU50 after 18 to 24 hrs by microdilution assay; assay type: functional
[8] = tested on: Staphylococcus aureus; test: Antibacterial activity against methicillin and linezolid resistant Staphylococcus aureus NRS 119 clinical isolate after 18 to 24 hrs by microdilution assay; assay type: functional
[9] = tested on: Staphylococcus aureus; test: Antibacterial activity against community-acquired methicillin and erythromycin resistant Staphylococcus aureus SA 325 after 18 to 24 hrs by microdilution assay; assay type: functional
[10] = tested on: Staphylococcus aureus; test: Antibacterial activity against hospital-acquired methicillin/ciprofloxacin/moxifloxacin resistant Staphylococcus aureus SA 481 after 18 to 24 hrs by microdilution assay; assay type: functional
[11] = tested on: Staphylococcus aureus; test: Antibacterial activity against hospital-acquired methicillin and vacomycin resistant Staphylococcus aureus VRS-1 after 18 to 24 hrs by microdilution assay; assay type: functional
[12] = tested on: THP-1; test: Cytotoxicity against human THP1 cells assessed as decrease in cell viability at 1 to 5 times MIC after 24 hrs by trypan blue exclusion assay relative to control; assay type: cell-based; details: thp-1, 24 h
[13] = Inhibition of Bacillus cereus beta-lactamase using nitrocefin as substrate preincubated for 15 mins followed by substrate addition and measured after 60 mins by spectrophotometric analysis
[14] = biological target: Secretory phospholipase A2; test: Inhibition of human sPLA2; assay type: protein assay
[15] = biological target: Voltage-gated inwardly rectifying potassium channel KCNH2 (Homo sapiens, UniProt Q12809); test: Displacement of [3H]-Dofetilide from recombinant human ERG after 60 mins by scintillation counting analysis
Voltage-gated inwardly rectifying potassium channel KCNH2, sequence (Q12809 whole entry): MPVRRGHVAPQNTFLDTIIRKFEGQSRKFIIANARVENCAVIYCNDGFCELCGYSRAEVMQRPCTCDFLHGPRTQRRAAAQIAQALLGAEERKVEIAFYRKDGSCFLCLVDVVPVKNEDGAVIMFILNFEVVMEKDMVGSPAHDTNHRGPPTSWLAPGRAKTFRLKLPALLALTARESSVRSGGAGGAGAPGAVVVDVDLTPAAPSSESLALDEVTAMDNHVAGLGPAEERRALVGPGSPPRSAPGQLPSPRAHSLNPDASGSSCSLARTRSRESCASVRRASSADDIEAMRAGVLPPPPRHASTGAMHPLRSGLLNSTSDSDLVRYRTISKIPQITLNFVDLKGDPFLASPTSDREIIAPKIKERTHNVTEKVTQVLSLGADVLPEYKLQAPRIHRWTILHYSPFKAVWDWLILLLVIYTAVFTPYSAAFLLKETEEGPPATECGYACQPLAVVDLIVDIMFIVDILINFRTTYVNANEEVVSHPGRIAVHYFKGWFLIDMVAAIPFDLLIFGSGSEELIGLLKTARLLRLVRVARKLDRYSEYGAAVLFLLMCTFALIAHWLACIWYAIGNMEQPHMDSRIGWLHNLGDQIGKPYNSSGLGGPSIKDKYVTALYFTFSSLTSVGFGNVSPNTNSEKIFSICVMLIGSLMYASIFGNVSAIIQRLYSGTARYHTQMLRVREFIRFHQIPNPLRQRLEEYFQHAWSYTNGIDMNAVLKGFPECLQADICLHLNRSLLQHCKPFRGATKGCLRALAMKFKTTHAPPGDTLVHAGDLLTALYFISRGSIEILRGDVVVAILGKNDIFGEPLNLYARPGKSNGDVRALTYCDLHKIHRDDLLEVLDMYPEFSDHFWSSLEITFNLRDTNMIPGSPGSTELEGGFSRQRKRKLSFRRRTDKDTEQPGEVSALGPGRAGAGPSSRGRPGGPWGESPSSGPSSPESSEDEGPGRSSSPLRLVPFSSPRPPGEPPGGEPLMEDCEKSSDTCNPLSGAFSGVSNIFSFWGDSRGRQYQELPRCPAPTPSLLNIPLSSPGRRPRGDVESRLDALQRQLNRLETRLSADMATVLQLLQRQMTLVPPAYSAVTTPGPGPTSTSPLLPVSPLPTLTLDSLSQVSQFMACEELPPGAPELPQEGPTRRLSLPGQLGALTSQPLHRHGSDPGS

[16] = biological target: T2, MAO-A (amine oxidase [flavin-containing] A) (Homo sapiens, UniProt P21397); test: Inhibition of human MAOA at 10 uM using kynuramine as substrate after 20 mins by spectrophotometric analysis relative to control; details: probe kynuramine
T2 sequence (P21397 whole entry): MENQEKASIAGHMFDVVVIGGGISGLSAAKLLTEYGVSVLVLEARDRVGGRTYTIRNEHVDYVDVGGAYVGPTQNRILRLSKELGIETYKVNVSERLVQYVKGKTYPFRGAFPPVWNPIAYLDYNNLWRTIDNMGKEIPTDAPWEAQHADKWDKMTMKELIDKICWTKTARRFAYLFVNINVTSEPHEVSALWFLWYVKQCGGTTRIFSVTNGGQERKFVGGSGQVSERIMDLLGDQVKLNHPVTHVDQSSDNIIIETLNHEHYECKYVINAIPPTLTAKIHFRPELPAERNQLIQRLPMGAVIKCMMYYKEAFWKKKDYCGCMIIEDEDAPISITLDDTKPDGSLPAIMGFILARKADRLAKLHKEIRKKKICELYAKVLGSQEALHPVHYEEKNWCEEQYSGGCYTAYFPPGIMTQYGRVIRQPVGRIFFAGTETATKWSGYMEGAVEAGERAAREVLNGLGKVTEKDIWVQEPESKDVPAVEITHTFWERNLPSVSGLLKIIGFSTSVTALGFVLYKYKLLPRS

[17] = biological target: hERG (KCNH2) (Homo sapiens, UniProt Q12809); test: Displacement of [3H]-Dofetilide from recombinant human ERG at 10 uM after 60 mins by scintillation counting analysis relative to control; details: probe [3H]-dofetilide
hERG (KCNH2), sequence (Q12809 whole entry): as the sequence (Q12809 whole entry) above

[18] = tested on: Staphylococcus aureus; test: Bactericidal activity against Staphylococcus aureus ATCC 25923 assessed as bacterial cell killing level at 0.1 mM after 24 hrs by time kill assay; assay type: functional
[19] = biological target: T1, D-alanine--D-alanine ligase; test: Inhibition of Enterococcus faecalis Ddl
[20] = Inhibition of 6His-tagged Staphylococcus aureus Ddl expressed in Escherichia coli M15 (pREP4) using ATP or d-alanine as substrate after 20 mins
[21] = Inhibition of full-length 6His-tagged Mycobacterium tuberculosis H37Rv Ddl expressed in Escherichia coli BL21(DE3)pLysS by UV-Vis spectrophotometric analysis
[22] = tested on: Mycobacterium tuberculosis; test: Antitubercular activity against Mycobacterium tuberculosis H37Rv; assay type: functional

SMILES | IC50 [1] | MIC [2] | MIC [3] | MIC [4] | MIC [5] | MIC [6] | MIC [7] | MIC [8] | MIC [9] | MIC [10] | MIC [11] | also measured
O=C(NNC(=S)Nc1ccc(Cl)c(Cl)c1)c1cc2ccccc2cc1O | 0.56 µM | > 100 µM | > 400 µM | > 100 µM | > 100 µM | > 100 µM | > 100 µM | > 100 µM | > 100 µM | > 100 µM | > 100 µM | 
O=C(NNC(=S)Nc1ccc(Cl)c(Cl)c1)c1ccccc1O | 1.54 µM | 100 µM (≈ 35.6 µg/mL) | 50 µM (≈ 17.8 µg/mL) | 50 µM (≈ 17.8 µg/mL) | 100 µM (≈ 35.6 µg/mL) | 50 µM (≈ 17.8 µg/mL) | 100 µM (≈ 35.6 µg/mL) | 50 µM (≈ 17.8 µg/mL) | 50 µM (≈ 17.8 µg/mL) | 100 µM (≈ 35.6 µg/mL) | 50 µM (≈ 17.8 µg/mL) | Activity [12]: 12 to 25%; IC50 [13]: 0.011 µM; IC50 [14]: 20 µM; IC50 [15]: 0.08 µM; inhibition at 20 min, 10 µM [16]: ≤ 30%; inhibition at 1 h, 10 µM [17]: ≤ 30%; Activity [18]: 99%
CCOC(=O)c1cc(Br)c2nc(-c3cccc(CN)c3)oc2c1 |  |  |  |  |  |  |  |  |  |  |  | IC50 [19]: 432 µM
CC(C)(CCl)C(=O)Nc1ccc(C(F)(F)F)cc1 |  |  |  |  |  |  |  |  |  |  |  | Ki [20]: 4 µM
N[C@@H]1CONC1=O [CYCLOSERINE] |  | 313 µM (≈ 32 µg/mL) | 1250 µM (≈ 128 µg/mL) |  |  |  |  |  |  |  |  | Ki [21]: 25 µM; MIC [22]: 50 mg/L (≈ 490 µM)
